Assay results: ChEMBL document CHEMBL1142342, “Lignans from the fruits of Forsythia suspensa” (Bioorg Med Chem Lett, 2008)
Active and inactive are the calls of the source. The calls are words filed in the database; no cut-off is given here.

Columns and labels:
[1] = test system: LLC-PK1; assay: Protective effect against 3-morpholinosydnonimine-induced cell death in pig LLC-PK1 cells after 1 hr by MTT assay; format: functional, cell-based; settings: Sus scrofa
[2] = test system: LLC-PK1; assay: Protective effect against 3-morpholinosydnonimine-induced cell death in pig LLC-PK1 cells assessed as viability at 50 uM after 1 hr by MTT assay; format: functional; settings: Sus scrofa, LLC-PK1, 1 h; read-out: Activity
[3] = test system: LLC-PK1; assay: Cytotoxicity against pig LLC-PK1 cells; format: cell-based, Sus scrofa
[4] = test system: LLC-PK1; assay: Inhibition of 3-morpholinosydnonimine-induced LDH release in pig LLC-PK1 cells at 50 uM after 24 hrs; format: functional, cell-based; settings: Sus scrofa
[5] = test system: LLC-PK1; assay: Inhibition of 3-morpholinosdynonimine-induced LDH release in pig LLC-PK1 cells at 10 uM after 24 hrs; format: functional, cell-based; settings: Sus scrofa
[6] = test system: LLC-PK1; assay: Inhibition of 3-morpholinosydnonimine-induced LDH release in pig LLC-PK1 cells after 24 hrs; format: functional, cell-based; settings: Sus scrofa

SMILES	Activity [1]	viability at 50 µM [2] [%]	Activity [3]	Activity [4]	Activity [5]	Activity [6]
COc1cc(O)cc([C@H]2OC[C@H](C(=O)c3ccc(O)c(OC)c3)[C@@H]2CO)c1 [FORSYTHIALAN A]	Dose-dependent effect	95	Non-toxic	Active	Active	
COc1cc(O)cc([C@H]2OC[C@H](C(=O)c3ccc(OC)c(OC)c3)[C@@H]2CO)c1 [FORSYTHIALAN B]	Dose-dependent effect	85	Non-toxic			Active
